Experimental data as given in patent US9738634B2, “Heterocyclic amide compound and herbicide” (SYNGENTA PARTICIPATIONS AG, priority 2013, dated 2017).

Legend:
Assay type in all cases: in vivo
[1] = tested on: barnyard grass; assay: Test Example 1: weedkilling efficacy, preemergent weed treatment in the submerged state; A: barnyard grass; conditions: treatment dosage 252 g/ha
Method in brief: (§1)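 Pre-emergence application onto floodwater (4 cm, alluvial soil) on the day of sowing, dose expressed as g/ha from diluted emulsion formulation. Weeds sown with 2.5-leaf transplanted rice as crop; plants held at 25–30 °C in greenhouse and scored against assessment criteria after 3 weeks.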

[2] = tested on: bulrush; assay: Test Example 1: weedkilling efficacy, preemergent weed treatment in the submerged state; B: bulrush; conditions: treatment dosage 252 g/ha
Method in brief: as §1

[3] = tested on: oval-leafed pondweed; assay: Test Example 1: weedkilling efficacy, preemergent weed treatment in the submerged state; C: oval-leafed pondweed; conditions: treatment dosage 252 g/ha
Method in brief: as §1

[4] = tested on: transplanted rice; assay: Test Example 1: preemergent weed treatment in the submerged state, effect on crop; a: transplanted rice; conditions: treatment dosage 252 g/ha
Method in brief: as §1

[5] = tested on: barnyard grass; assay: Test Example 2: weedkilling efficacy, growth period weed treatment in the submerged state; A: barnyard grass; conditions: treatment dosage 252 g/ha
Method in brief: (§2)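 Weeds treated at the 1-2 leaf stage by application of diluted emulsion onto floodwater (4 cm depth, alluvial soil) at specified g/ha. Grown in greenhouse at 25 to 30° C; herbicidal effect rated three weeks after treatment.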

[6] = tested on: bulrush; assay: Test Example 2: weedkilling efficacy, growth period weed treatment in the submerged state; B: bulrush; conditions: treatment dosage 252 g/ha
Method in brief: as §2

[7] = tested on: oval-leafed pondweed; assay: Test Example 2: weedkilling efficacy, growth period weed treatment in the submerged state; C: oval-leafed pondweed; conditions: treatment dosage 252 g/ha
Method in brief: as §2

[8] = tested on: crabgrass; assay: Test Example 3: weedkilling efficacy through soil treatment; D: crabgrass; conditions: treatment dosage 315 g/ha
Method in brief: (§3)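 Crop and weed responses were judged three weeks after a uniform surface spray of the water-diluted emulsion at the given g/ha rate. Seeds sat beneath about 1.5 cm of sterilized diluvial soil, and boxes stood in a greenhouse at 25 to 30° C.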

[9] = tested on: green foxtail; assay: Test Example 3: weedkilling efficacy through soil treatment; E: green foxtail; conditions: treatment dosage 315 g/ha
Method in brief: as §3

[10] = tested on: barnyard grass; assay: Test Example 3: weedkilling efficacy through soil treatment; F: barnyard grass; conditions: treatment dosage 315 g/ha
Method in brief: as §3

[11] = tested on: wild oat; assay: Test Example 3: weedkilling efficacy through soil treatment; G: wild oat; conditions: treatment dosage 315 g/ha
Method in brief: as §3

[12] = tested on: black-grass; assay: Test Example 3: weedkilling efficacy through soil treatment; H: black-grass; conditions: treatment dosage 315 g/ha
Method in brief: as §3

[13] = tested on: Italian ryegrass; assay: Test Example 3: weedkilling efficacy through soil treatment; I: Italian ryegrass; conditions: treatment dosage 315 g/ha
Method in brief: as §3

[14] = tested on: common wind-grass; assay: Test Example 3: weedkilling efficacy through soil treatment; J: common wind-grass; conditions: treatment dosage 315 g/ha
Method in brief: as §3

[15] = tested on: Indian mallow; assay: Test Example 3: weedkilling efficacy through soil treatment; K: Indian mallow; conditions: treatment dosage 315 g/ha
Method in brief: as §3

[16] = tested on: redroot pigweed; assay: Test Example 3: weedkilling efficacy through soil treatment; L: redroot pigweed; conditions: treatment dosage 315 g/ha
Method in brief: as §3

[17] = tested on: chickweed; assay: Test Example 3: weedkilling efficacy through soil treatment; N: chickweed; conditions: treatment dosage 315 g/ha
Method in brief: as §3

[18] = tested on: catchweed; assay: Test Example 3: weedkilling efficacy through soil treatment; O: catchweed; conditions: treatment dosage 315 g/ha
Method in brief: as §3

[19] = tested on: birds-eye speedwell; assay: Test Example 3: weedkilling efficacy through soil treatment; p: birds-eye speedwell; conditions: treatment dosage 315 g/ha
Method in brief: as §3

[20] = tested on: directly sown rice; assay: Test Example 3: soil treatment, effect on crop; b: directly sown rice; conditions: treatment dosage 315 g/ha
Method in brief: as §3

[21] = tested on: corn; assay: Test Example 3: soil treatment, effect on crop; c: corn; conditions: treatment dosage 315 g/ha
Method in brief: as §3

[22] = tested on: soybean; assay: Test Example 3: soil treatment, effect on crop; d: soybean; conditions: treatment dosage 315 g/ha
Method in brief: as §3

[23] = tested on: wheat; assay: Test Example 3: soil treatment, effect on crop; e: wheat; conditions: treatment dosage 315 g/ha
Method in brief: as §3

[24] = tested on: beet; assay: Test Example 3: soil treatment, effect on crop; f: beet; conditions: treatment dosage 315 g/ha
Method in brief: as §3

[25] = tested on: rapeseed; assay: Test Example 3: soil treatment, effect on crop; g: rapeseed; conditions: treatment dosage 315 g/ha
Method in brief: as §3

[26] = tested on: crabgrass; assay: Test Example 4: weedkilling efficacy by foliar treatment; D: crabgrass; conditions: treatment dosage 315 g/ha
Method in brief: (§4)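 Seeds are spot-sown into sterilized diluvial soil and covered with about 1.5 cm of soil. After 14 days' greenhouse growth at 25 to 30° C, plants are sprayed on stems and leaves with diluted emulsion at the stated g/ha rate, then scored at 3 weeks.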

[27] = tested on: green foxtail; assay: Test Example 4: weedkilling efficacy by foliar treatment; E: green foxtail; conditions: treatment dosage 315 g/ha
Method in brief: as §4

[28] = tested on: barnyard grass; assay: Test Example 4: weedkilling efficacy by foliar treatment; F: barnyard grass; conditions: treatment dosage 315 g/ha
Method in brief: as §4

[29] = tested on: wild oat; assay: Test Example 4: weedkilling efficacy by foliar treatment; G: wild oat; conditions: treatment dosage 315 g/ha
Method in brief: as §4

[30] = tested on: black-grass; assay: Test Example 4: weedkilling efficacy by foliar treatment; H: black-grass; conditions: treatment dosage 315 g/ha
Method in brief: as §4

[31] = tested on: Italian ryegrass; assay: Test Example 4: weedkilling efficacy by foliar treatment; I: Italian ryegrass; conditions: treatment dosage 315 g/ha
Method in brief: as §4

[32] = tested on: common wind-grass; assay: Test Example 4: weedkilling efficacy by foliar treatment; J: common wind-grass; conditions: treatment dosage 315 g/ha
Method in brief: as §4

[33] = tested on: Indian mallow; assay: Test Example 4: weedkilling efficacy by foliar treatment; K: Indian mallow; conditions: treatment dosage 315 g/ha
Method in brief: as §4

[34] = tested on: redroot pigweed; assay: Test Example 4: weedkilling efficacy by foliar treatment; L: redroot pigweed; conditions: treatment dosage 315 g/ha
Method in brief: as §4

[35] = tested on: chickweed; assay: Test Example 4: weedkilling efficacy by foliar treatment; N: chickweed; conditions: treatment dosage 315 g/ha
Method in brief: as §4

[36] = tested on: catchweed; assay: Test Example 4: weedkilling efficacy by foliar treatment; O: catchweed; conditions: treatment dosage 315 g/ha
Method in brief: as §4

[37] = tested on: birds-eye speedwell; assay: Test Example 4: weedkilling efficacy by foliar treatment; p: birds-eye speedwell; conditions: treatment dosage 315 g/ha
Method in brief: as §4

[38] = tested on: directly sown rice; assay: Test Example 4: foliar treatment, effect on crop; b: directly sown rice; conditions: treatment dosage 315 g/ha
Method in brief: as §4

[39] = tested on: corn; assay: Test Example 4: foliar treatment, effect on crop; c: corn; conditions: treatment dosage 315 g/ha
Method in brief: as §4

[40] = tested on: soybean; assay: Test Example 4: foliar treatment, effect on crop; d: soybean; conditions: treatment dosage 315 g/ha
Method in brief: as §4

[41] = tested on: wheat; assay: Test Example 4: foliar treatment, effect on crop; e: wheat; conditions: treatment dosage 315 g/ha
Method in brief: as §4

[42] = tested on: beet; assay: Test Example 4: foliar treatment, effect on crop; f: beet; conditions: treatment dosage 315 g/ha
Method in brief: as §4

[43] = tested on: rapeseed; assay: Test Example 4: foliar treatment, effect on crop; g: rapeseed; conditions: treatment dosage 315 g/ha
Method in brief: as §4

CC1=C(c2ccccc2)C(=O)N(C(C)(C)C(=O)Nc2cc(F)cc(F)n2)CO1 [B-2-33]
A (barnyard grass) weedkilling efficacy grade [1]: 5 (weed kill ratio 90% or more, (practically complete withering))
B (bulrush) weedkilling efficacy grade [2]: 5 (weed kill ratio 90% or more, (practically complete withering))
C (oval-leafed pondweed) weedkilling efficacy grade [3]: 5 (weed kill ratio 90% or more, (practically complete withering))
a (transplanted rice) effect on crop grade [4]: 3 (weed kill ratio 40% or more, less than 70%)
A (barnyard grass) weedkilling efficacy grade [5]: 5 (weed kill ratio 90% or more, (practically complete withering))
B (bulrush) weedkilling efficacy grade [6]: 5 (weed kill ratio 90% or more, (practically complete withering))
C (oval-leafed pondweed) weedkilling efficacy grade [7]: 5 (weed kill ratio 90% or more, (practically complete withering))
D (crabgrass) weedkilling efficacy grade [8]: 5 (weed kill ratio 90% or more, (practically complete withering))
E (green foxtail) weedkilling efficacy grade [9]: 5 (weed kill ratio 90% or more, (practically complete withering))
F (barnyard grass) weedkilling efficacy grade [10]: 5 (weed kill ratio 90% or more, (practically complete withering))
G (wild oat) weedkilling efficacy grade [11]: 5 (weed kill ratio 90% or more, (practically complete withering))
H (black-grass) weedkilling efficacy grade [12]: 5 (weed kill ratio 90% or more, (practically complete withering))
I (Italian ryegrass) weedkilling efficacy grade [13]: 5 (weed kill ratio 90% or more, (practically complete withering))
J (common wind-grass) weedkilling efficacy grade [14]: 5 (weed kill ratio 90% or more, (practically complete withering))
K (Indian mallow) weedkilling efficacy grade [15]: 5 (weed kill ratio 90% or more, (practically complete withering))
L (redroot pigweed) weedkilling efficacy grade [16]: 4 (weed kill ratio 70% or more, less than 90%)
N (chickweed) weedkilling efficacy grade [17]: 4 (weed kill ratio 70% or more, less than 90%)
O (catchweed) weedkilling efficacy grade [18]: 5 (weed kill ratio 90% or more, (practically complete withering))
P (birds-eye speedwell) weedkilling efficacy grade [19]: 5 (weed kill ratio 90% or more, (practically complete withering))
b (directly sown rice) effect on crop grade [20]: 5 (weed kill ratio 90% or more, (practically complete withering))
c (corn) effect on crop grade [21]: 3 (weed kill ratio 40% or more, less than 70%)
d (soybean) effect on crop grade [22]: 4 (weed kill ratio 70% or more, less than 90%)
e (wheat) effect on crop grade [23]: 5 (weed kill ratio 90% or more, (practically complete withering))
f (beet) effect on crop grade [24]: 1 (weed kill ratio 5% or more, less than 20%)
g (rapeseed) effect on crop grade [25]: 5 (weed kill ratio 90% or more, (practically complete withering))
D (crabgrass) weedkilling efficacy grade [26]: 5 (weed kill ratio 90% or more, (practically complete withering))
E (green foxtail) weedkilling efficacy grade [27]: 5 (weed kill ratio 90% or more, (practically complete withering))
F (barnyard grass) weedkilling efficacy grade [28]: 5 (weed kill ratio 90% or more, (practically complete withering))
G (wild oat) weedkilling efficacy grade [29]: 5 (weed kill ratio 90% or more, (practically complete withering))
H (black-grass) weedkilling efficacy grade [30]: 5 (weed kill ratio 90% or more, (practically complete withering))
I (Italian ryegrass) weedkilling efficacy grade [31]: 5 (weed kill ratio 90% or more, (practically complete withering))
J (common wind-grass) weedkilling efficacy grade [32]: 5 (weed kill ratio 90% or more, (practically complete withering))
K (Indian mallow) weedkilling efficacy grade [33]: 4 (weed kill ratio 70% or more, less than 90%)
L (redroot pigweed) weedkilling efficacy grade [34]: 4 (weed kill ratio 70% or more, less than 90%)
N (chickweed) weedkilling efficacy grade [35]: 4 (weed kill ratio 70% or more, less than 90%)
O (catchweed) weedkilling efficacy grade [36]: 5 (weed kill ratio 90% or more, (practically complete withering))
P (birds-eye speedwell) weedkilling efficacy grade [37]: 5 (weed kill ratio 90% or more, (practically complete withering))
b (directly sown rice) effect on crop grade [38]: 5 (weed kill ratio 90% or more, (practically complete withering))
c (corn) effect on crop grade [39]: 3 (weed kill ratio 40% or more, less than 70%)
d (soybean) effect on crop grade [40]: 4 (weed kill ratio 70% or more, less than 90%)
e (wheat) effect on crop grade [41]: 4 (weed kill ratio 70% or more, less than 90%)
f (beet) effect on crop grade [42]: 4 (weed kill ratio 70% or more, less than 90%)
g (rapeseed) effect on crop grade [43]: 4 (weed kill ratio 70% or more, less than 90%)
